In BindingDB's records for doi:10.1021/jm0704595 (University of Turin, 2007) one finds EC50 data, which are given here for one molecule.

What is called EC50 is the concentration that produces a half-maximal response.

“And” between values parts separate entries of the source, which are not always exact repeats. Identical values can stand only once.

This assay is described as follows: Agonist activity at adrenergic beta2 receptor in guinea pig tracheal rings assessed as myorelaxing activity on carbachol-induced contraction in presence of propranolol.

As for `Cc1c(COc2ccc(CC(C)NCC(O)c3cc(O)cc(O)c3)cc2)no[n+]1[O-]` (stereo unspecified) [5-(1-hydroxy-2-{1-methyl-2-[4-(4-methyl-5-oxy-furazan-3-ylmethoxy)-phenyl]-ethylamino}-ethyl)-benzene-1,3-diol], the EC50 is 55 µM and 54 µM.
